# According to patent publication US6875760B2 (Novo Nordisk A/S, priority 1999, dated 2005):
# Target: T1, cloned human glucagon receptor (Homo sapiens, UniProt P47871)
# T1 construct: expressed in transfected cells; plasma membrane preparation
# Assay: Glucagon Binding Assay (II)
# Settings: plasma membranes of BHK cells expressing the receptor; read-out: Glu Bd Assay (II) IC50
# T1 sequence (P47871 26-477): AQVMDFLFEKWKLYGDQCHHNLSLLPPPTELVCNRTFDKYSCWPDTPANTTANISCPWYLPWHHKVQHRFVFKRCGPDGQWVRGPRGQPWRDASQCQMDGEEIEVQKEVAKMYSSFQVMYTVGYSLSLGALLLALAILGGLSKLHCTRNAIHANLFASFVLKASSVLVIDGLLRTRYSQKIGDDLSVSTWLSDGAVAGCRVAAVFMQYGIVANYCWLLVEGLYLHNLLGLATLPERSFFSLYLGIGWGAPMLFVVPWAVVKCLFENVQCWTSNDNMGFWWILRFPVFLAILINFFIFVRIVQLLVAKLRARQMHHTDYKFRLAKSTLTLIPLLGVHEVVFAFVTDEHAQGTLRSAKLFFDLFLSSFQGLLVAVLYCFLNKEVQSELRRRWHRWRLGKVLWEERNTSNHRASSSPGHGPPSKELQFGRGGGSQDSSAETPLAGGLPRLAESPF
row,IC50 [nM],SMILES
1,250,"CC(C)(C)C1CCC(N(Cc2ccc(C(=O)NCCc3nnn[nH]3)cc2)C(=O)Nc2cc(Cl)cc(Cl)c2)CC1 (stereo not drawn) [Example 157, 4-[1-(4-tert-Butylcyclohexyl)-3-(3,5-dichlorophenyl)ureidomethyl]-N-[2-(1H-tetrazol-5-yl)ethyl]benzamide]"
2,254,CCCCOC(=O)c1ccc(NC(=O)N(CCC(C)C)Cc2ccc(C(=O)NCCC(=O)O)cc2)cc1
3,541,"CC(C)(C)[C@H]1CC[C@@H](N(Cc2ccc(C(=O)NCCC(=O)O)cc2)NC(=O)c2ccc(F)c(F)c2)CC1 [Example 589, 3-{4-[N-(cis-4-tert-Butylcyclohexyl)-N′-(3,4-difluorobenzoyl)hydrazinomethyl]benzoylamino}propionic acid]"
4,379,"C[C@@H](C1CCCCC1)N(Cc1ccc(C(=O)NCCC(=O)O)cc1)C(=O)Nc1ccc(OC(F)(F)F)cc1 [Example 139, 3-{4-[1-((1S)-1-Cyclohexylethyl)-3-(4-trifluoromethoxyphenyl)ureidomethyl]benzoylamino)propionic acid]"
5,13,CCCCc1ccc(N(Cc2ccc(C(=O)NCCC(=O)O)cc2)C(=O)Nc2ccc(OC(F)(F)F)cc2)cc1 [drawing 1186]
6,874,"CC(C)(C)[C@H]1CC[C@H](N(Cc2ccc(C(=O)NCCC(=O)O)cc2)C(=O)c2ccc(OC(F)(F)F)cc2)CC1 [Example 586, 3-(4-{[(trans-4-tert-Butylcyclohexyl)-(4-trifluoromethoxybenzoyl)amino]methyl}benzoylamino)propionic acid]"
7,694,"C[C@@H](C1CCCCC1)N(Cc1ccc(C(=O)NCCC(=O)O)cc1)C(=O)Nc1ccc2ccccc2c1 [Example 110, 3-{4-[1-((1S)-1-Cyclohexylethyl)-3-naphthalene-2-ylureidomethyl]benzoylamino)propionic acid]"
8,224,"CC(C)(C)[C@H]1CC[C@@H](N(Cc2ccc(C(=O)NCCC(=O)O)cc2)NC(=O)c2cccc(OC(F)(F)F)c2)CC1 [Example 590, 3-{4-[N-(cis-4-tert-Butylcyclohexyl)-N′-(3-trifluoromethoxybenzoyl)hydrazinomethyl]benzoylamino}propionic acid]"
9,823,"O=C(O)CCNC(=O)c1ccc(CN(CCC(c2ccccc2)c2ccccc2)Cc2ccc3c(c2)OCO3)cc1 [Example 155, 3-(4-{[(3,3-Diphenylpropyl)-(3,4-methylenedioxybenzyl)amino]methyl}benzoylamino)propionic acid]"
10,264,CCCCOC(=O)c1ccc(NC(=O)N(Cc2ccc(C(=O)NCCC(=O)O)cc2)CC2CCCCC2)cc1
11,454,"CC1CC(C)CC(N(Cc2ccc(C(=O)NCCC(=O)O)cc2)C(=O)Nc2cc(Cl)cc(Cl)c2)C1 (stereo not drawn) [Example 177, 3-{4-[3-(3,5-Dichlorophenyl)-1-(3,5-dimethylcyclohexyl)ureidomethyl]benzoylamino)propionic acid]"
12,229,"CC(C)(C)C1CCC(N(Cc2ccc(C(=O)NCCC(=O)O)cc2)C(=O)Nc2ccc(Cl)cc2)CC1 (stereo not drawn) [Example 230, 3-{4-[1-(4-tert-Butylcyclohexyl)-3-(4-chlorophenyl)ureidomethyl]benzoylamino}propionic acid]"
13,360,"O=C(O)CCNC(=O)c1ccc(CN(C(=O)Nc2ccc(OC(F)(F)F)cc2)C2Cc3ccccc3C2)cc1 [Example 137, 3-{4-[1-(1-Indan-2-yl)-3-(4-trifluoromethoxyphenyl)ureidomethyl]benzoylamino)propionic acid]"
14,111,"O=C(O)CCNC(=O)c1ccc(CN(Cc2ccc(OC(F)(F)F)cc2)[C@H]2CC[C@H](C3CCCCC3)CC2)cc1 [Example 387, 3-(4-{[(trans-4-cyclohexylcyclohexyl)-(4-trifluoromethoxybenzyl)amino]methyl}benzoylamino)propionic acid]"
15,1200,"Cc1ccc(NC(=O)N(Cc2ccc(S(=O)(=O)NCCC(=O)O)cc2)C2CCC(C(C)(C)C)CC2)cc1F (stereo not drawn) [Example 107, 3-{4-[1-(4-tert-Butylcyclohexyl)-3-(3-fluoro-4-methylphenyl)ureidomethyl]benzenesulfonylamino)propionic acid]"
16,13,"O=C(Nc1nn[nH]n1)c1ccc(CN(C(=O)Nc2ccc3c(c2)OC(F)(F)C(F)(F)O3)c2ccc(C3CCCCC3)cc2)cc1 [Example 396, 4-[1-(4-Cyclohexylphenyl)-3-(2,2,3,3-tetrafluoro-2,3-dihydrobenzo[1,4]dioxin-6-yl)ureidomethyl]-N-(2H-tetrazol-5-yl)benzamide]"
17,242,"CC(C)(C)C1CCC(N(Cc2ccc(CNc3nn[nH]n3)cc2)C(=O)Nc2ccc(OC(F)(F)F)cc2)CC1 (mixture of isomers) [Example 579, 1-(4-tert-Butylcyclohexyl)-1-{4-[(2H-tetrazol-5-ylamino)methyl]benzyl}-3-(4-trifluoromethoxyphenyl)urea]"

# Same assay, conditions: screened at 1 μM; library compounds; read-out: displacement of the glucagon tracer when screened at 1 μM concentration in the glucagon binding assay II
row,inhibition at 1 µM [%],SMILES
1,> 50,"CC(C)(C)C1CCC(N(Cc2ccc(C(=O)Nc3ccc(O)c([N+](=O)[O-])c3)cc2)C(=O)Nc2ccc(Cl)cc2)CC1 (stereo not drawn) [Example 162, 4-[1-(4-tert-Butylcyclohexyl)-3-(4-chlorophenyl)ureidomethyl]-N-(4-hydroxy-3-nitrophenyl)benzamide]"
2,> 50,"Cc1cc(C)cc(NC(=O)N(Cc2ccc(OCCCC(=O)O)cc2)C2CCC(C(C)(C)C)CC2)c1 (stereo not drawn) [Example 227, 4-{4-[1-(4-tert-Butylcyclohexyl)-3-(3,5-dimethylphenyl)ureidomethyl]phenoxy}butyric acid]"
3,> 50,"CC(C)(C)c1ccc(CN(Cc2ccc(C(=O)NCCC(=O)O)s2)C(=O)Nc2ccc(SC(F)(F)F)cc2)cc1 [Example 130, 3-{5-[1-(4-tert-Butylbenzyl)-3-(4-trifluoromethylsulfanylphenyl)ureidomethyl]thiophene-2-carbonylamino)propionic acid]"
4,> 50,"O=C(O)CCNC(=O)c1ccc(CN(Cc2ccccc2Cl)CC(c2ccccc2)c2ccccc2)s1 [Example 144, 3-(5-{[(2,2-Diphenylethyl)-(2-chlorobenzyl)amino]methyl}thiophene-2-carbonylamino)propionic acid]"
5,> 50,"CC1CCCCN1CCCN(Cc1ccc(C(=O)NCCC(=O)O)cc1)C(=O)Nc1ccc(Cl)c(C(F)(F)F)c1 (stereo not drawn) [Example 193, 3-(4-{3-(4-Chloro-3-trifluoromethylphenyl)-1-[3-(2-methylpiperidin-1-yl)propyl]ureidomethyl}benzoylamino)propionic acid]"
6,> 50,"CC(C)(C)C1CCC(N(Cc2ccc(C(=O)Nc3ccc4c(c3)OCCO4)cc2)C(=O)Nc2cc(Cl)cc(Cl)c2)CC1 (stereo not drawn) [Example 168, 4-[1-(4-tert-Butylcyclohexyl)-3-(3,5-dichlorophenyl)ureidomethyl]-N-(2,3-dihydro-1,4-benzodioxin-6-yl)benzamide]"
7,> 50,"CC1(C)C2CCC(CN(Cc3ccc(OCCCC(=O)O)cc3)C(=O)Nc3ccc(OC(F)(F)F)cc3)C1C2 (stereo not drawn) [Example 214, 4-{4-[1-(6,6-Dimethylbicyclo[3.1.1]hept-2-ylmethyl)-3-(4-trifluoromethoxyphenyl)ureidomethyl]phenoxy}butyric acid]"
8,> 50,"CC(C)(C)C1CCC(N(Cc2ccc(OCCCC(=O)O)cc2)C(=O)Nc2ccc(C(=O)O)cc2)CC1 (stereo not drawn) [Example 226, 4-{3-(4-tert-Butylcyclohexyl)-3-[4-(3-carboxypropoxy)benzyl]ureido}benzoic acid]"
9,> 50,"O=C(O)CCN1C(=O)c2ccc(CN(C(=O)Nc3ccc(Cl)c(C(F)(F)F)c3)c3ccc4nc(S)sc4c3)cc2C1=O [Example 229, 3-{5-[3-(4-Chloro-3-trifluoromethylphenyl)-1-(2-mercaptobenzothiazol-6-yl)ureidomethyl]1,3-dioxo-1,3-dihydro-isoindol-2-yl}propionic acid]"
10,> 50,"O=C(O)CCNC(=O)c1ccc(CN(C(=O)Nc2ccc(Cl)c(C(F)(F)F)c2)c2nc3cc(Cl)c(Cl)cc3[nH]2)cc1 [Example 195, 3-{4-[3-(4-Chloro-3-trifluoromethylphenyl)-1-(5,6-dichloro-1H-benzimidazol-2-yl)ureidomethyl]benzoylamino}propionic acid]"
11,> 50,"COc1ccc(CN(Cc2cccc(Oc3cccc(C(F)(F)F)c3)c2)Cc2ccc(C(=O)NCCC(=O)O)s2)cc1OC [Example 152, 3-(5-{[(3,4-Dimethoxybenzyl)-(3-[3-trifluoromethylphenoxy]benzyl)amino]methyl}thiophene-2-carbonylamino)propionic acid]"
12,> 50,"O=C(O)CCNC(=O)c1ccc(CN(CCc2ccccc2)Cc2ccc(Oc3ccccc3)cc2)s1 [Example 146, 3-(5-{[(2-Phenylethyl)-(4-phenoxybenzyl)amino]methyl}thiophene-2-carbonylamino)propionic acid]"
13,> 50,"COc1ccc2nc(N(Cc3ccc(OCCCC(=O)O)cc3)C(=O)Nc3ccc(Cl)c(C(F)(F)F)c3)sc2n1 [Example 221, 4-{4-[3-(4-Chloro-3-trifluoromethylphenyl)-1-(5-methoxythiazolo[5,4-b]pyridin-2-yl)ureidomethyl]phenoxy}butyric acid]"
14,> 50,"COc1ccc(CN(Cc2ccc(C(=O)NCCC(=O)O)cc2)Cc2cccc(Oc3cccc(C(F)(F)F)c3)c2)cc1OC [Example 151, 3-(4-{[(3,4-Dimethoxybenzyl)-(3-[3-trifluoromethylphenoxy]benzyl)amino]methyl}benzoylamino)propionic acid]"
15,> 50,"O=C(O)CCNC(=O)c1ccc(CN(C(=O)Nc2ccc(Cl)c(C(F)(F)F)c2)[C@@H](CO)CC2CCCCC2)cc1 (stereo in doubt) [Example 189, 3-{4-[3-(4-Chloro-3-trifluoromethylphenyl)-1-(2-cyclohexyl-1-hydroxymethylethyl)ureidomethyl]benzoylamino}propionic acid]"
16,> 50,"CC(C)(C)C1CCC(N(Cc2ccc(C(=O)Nc3ccc(O)c([N+](=O)[O-])c3)cc2)C(=O)Nc2ccc(OC(F)(F)F)cc2)CC1 (stereo not drawn) [Example 163, 4-[1-(4-tert-Butylcyclohexyl)-3-(4-trifluoromethoxyphenyl)ureidomethyl]-N-(4-hydroxy-3-nitrophenyl)benzamide]"
